# In publication PMC7192623, “Regulation of the RNA and DNA nuclease activities required for Pyrococcus furiosus Type III-B CRISPR–Cas immunity” (Nucleic Acids Research, 2020):
# Legend:
# [1] = molecular target: T1, Pfu Csx1 (Pyrococcus furiosus, UniProt Q8U1S8); experiment: RNase activation assay, […]'-32P-labelled target RNA, urea-PAGE; format: biochemical; details: allosteric activator via CARF domain; synthetic cA4 at 1.85, 18.5 and 185 pM; 20 nM Csx1; 20 mM Tris-HCl pH 7.5, 200 mM NaCl, 70 °C
# T1 construct: gene PF1127; full-length, N-terminal 6x-His tag, modified pET24-D, expressed in E. coli BL21-RIPL (DE3)
# T1 sequence (Q8U1S8 1-478): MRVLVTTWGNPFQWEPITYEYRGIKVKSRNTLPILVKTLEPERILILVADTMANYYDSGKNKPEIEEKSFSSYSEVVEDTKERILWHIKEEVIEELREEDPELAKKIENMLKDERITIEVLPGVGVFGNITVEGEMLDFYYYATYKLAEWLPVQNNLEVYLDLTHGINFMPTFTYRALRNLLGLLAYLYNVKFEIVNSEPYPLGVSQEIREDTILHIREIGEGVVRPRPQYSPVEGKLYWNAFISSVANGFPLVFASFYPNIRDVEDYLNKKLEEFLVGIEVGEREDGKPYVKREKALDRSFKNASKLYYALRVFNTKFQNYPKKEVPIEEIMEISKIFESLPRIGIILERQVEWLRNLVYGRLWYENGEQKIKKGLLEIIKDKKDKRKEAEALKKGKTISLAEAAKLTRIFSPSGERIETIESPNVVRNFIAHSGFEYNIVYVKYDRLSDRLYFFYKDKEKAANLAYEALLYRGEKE
# [2] = molecular target: T1, Pfu Csx1; experiment: cleavage of radiolabelled Cmr-produced native cOA, sequencing gel; format: biochemical; details: HEPN active site; labelled compound; native cOA preparation (mainly cA4, also cA3), product presumed A2>p; 70 °C
smiles,measurement,setting,value
Nc1ncnc2c1ncn2[C@@H]1O[C@@H]2COP(=O)(O)O[C@H]3[C@@H](O)[C@H](n4cnc5c(N)ncnc54)O[C@@H]3COP(=O)(O)O[C@H]3[C@@H](O)[C@H](n4cnc5c(N)ncnc54)O[C@@H]3COP(=O)(O)O[C@H]3[C@@H](O)[C@H](n4cnc5c(N)ncnc54)O[C@@H]3COP(=O)(O)O[C@H]2[C@H]1O [cA4],"RNase activation assay, 5'-32P-labelled target RNA, urea-PAGE",[1],cA4 but not cA6 stimulated the ribonuclease activity of Csx1
same,"cleavage of radiolabelled Cmr-produced native cOA, sequencing gel",[2],also degrades its cognate cyclic-tetra-AMP (cA4) activator to switch off the signaling pathway
